Assay results taken from US9695155B2, “Herbicidal substituted pyrimidinyloxy benzene compounds” (E. I. DU PONT DE NEMOURS AND COMPANY, priority 2013, dated 2017).

Assays:
[1] = test system: sedge, umbrella; assay: Test B flooded paddy test; format: in vivo, Cyperus difformis; settings: Flood, 250 g ai/ha, 0 to 100 scale where 0 is no effect and 100 is complete control
Method in brief: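 Plants were grown to the 2-leaf stage, then pots were flooded to 3 cm above the soil and compounds were applied directly into the paddy water. That depth was held throughout, and after 13 to 15 days in the greenhouse injury was rated visually against controls on a 0–100 scale (0 no effect, 100 complete control).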

[2] = test system: oilseed rape; assay: Test C postemergence; format: in vivo, Brassica napus
Method in brief: (§1)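 Preemergence: seeds sown in a loam soil–sand blend and sprayed with test chemical in a non-phytotoxic solvent mixture containing surfactant. Postemergence: plants at 2 to 18 cm (1- to 4-leaf stage) in peat-based medium, treated with the same formulation. Greenhouse 13 to 15 days, then visual rating 0 (no effect) to 100 (complete control).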

[3] = test system: giant foxtail; assay: Test C postemergence; format: in vivo, Setaria faberii
Method in brief: as §1

[4] = test system: large (Lg) crabgrass; assay: Test C postemergence; format: in vivo, Digitaria sanguinalis
Method in brief: as §1

[5] = test system: soybean; assay: Test C postemergence; format: in vivo, Glycine max
Method in brief: as §1

[6] = test system: wheat; assay: Test A postemergence; format: in vivo, Triticum aestivum; settings: 0 to 100 scale where 0 is no effect and 100 is complete control
Method in brief: (§2)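 Scoring: eye-based comparison with untreated controls, 0 for no effect through 100 for complete control, at about day 10. Treatments: directed soil spray preemergence; foliar spray postemergence on 2–10 cm plants at the one- to two-leaf stage. Medium: loam soil with sand.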

[7] = test system: galium; assay: Test C preemergence; format: in vivo, Galium aparine
Method in brief: as §1

[8] = test system: velvetleaf; assay: Test C postemergence; format: in vivo, Abutilon theophrasti
Method in brief: as §1

[9] = test system: pigweed; assay: Test A postemergence; format: in vivo, Amaranthus retroflexus; settings: 0 to 100 scale where 0 is no effect and 100 is complete control
Method in brief: as §2

[10] = test system: Italian ryegrass; assay: Test C preemergence; format: in vivo, Lolium multiflorum
Method in brief: as §1

[11] = test system: johnsongrass; assay: Test C postemergence; format: in vivo, Sorghum halepense
Method in brief: as §1

[12] = test system: yellow nutsedge; assay: Test C postemergence; format: in vivo, Cyperus esculentus
Method in brief: as §1

[13] = test system: pigweed; assay: Test A preemergence; format: in vivo, Amaranthus retroflexus; settings: 0 to 100 scale where 0 is no effect and 100 is complete control
Method in brief: as §2

[14] = 16 g ai/ha, postemergence, 0 is no effect, 100 is complete control
[15] = 125 g ai/ha, postemergence, visual rating, scale 0 to 100 (0 no effect, 100 complete control)
[16] = Postemergence, 62 g ai/ha, scale 0 to 100 (0 no effect, 100 complete control)
[17] = 16 g ai/ha, preemergence, scale 0 to 100 (0 no effect, 100 complete control)
[18] = 62 g ai/ha, preemergence, scale 0 (no effect) to 100 (complete control)
[19] = 125 g ai/ha, preemergence, scale 0 (no effect) to 100 (complete control)

SMILES: FC(F)(F)Sc1cnn(-c2ccccc2Oc2ncc(Cl)cn2)c1 [Compound 132, 5-chloro-2-[2-[4-(trifluoromethylthio)-1H-pyrazol-1-yl]phenoxy]pyrimidine]
- pest or weed control at 250 g/ha ([1]; Cyperus difformis, read-out: Plant response rating, Sedge, Umbrella): 0%
- plant injury at 16 g/ha ([2]; Brassica napus, post-emergence, 16 g ai/ha, postemergence, 0 is no effect, 100 is complete control, read-out: Plant response rating (0 to 100), Oilseed Rape): 40%
- plant injury at 125 g/ha ([2]; Brassica napus, post-emergence, 125 g ai/ha, postemergence, visual rating, scale 0 to 100 (0 no effect, 100 complete control), read-out: Plant response rating, Oilseed Rape): 95%
- plant injury at 62 g/ha ([2]; Brassica napus, post-emergence, Postemergence, 62 g ai/ha, scale 0 to 100 (0 no effect, 100 complete control), read-out: Plant response rating, Oilseed Rape): 70%
- pest or weed control at 16 g/ha ([3]; Setaria faberi, post-emergence, 16 g ai/ha, postemergence, 0 is no effect, 100 is complete control, read-out: Plant response rating (0 to 100), Foxtail, Giant): 0%
- pest or weed control at 125 g/ha ([3]; Setaria faberi, post-emergence, 125 g ai/ha, postemergence, visual rating, scale 0 to 100 (0 no effect, 100 complete control), read-out: Plant response rating, Foxtail, Giant): 10%
- pest or weed control at 62 g/ha ([3]; Setaria faberi, post-emergence, Postemergence, 62 g ai/ha, scale 0 to 100 (0 no effect, 100 complete control), read-out: Plant response rating, Foxtail, Giant): 5%
- pest or weed control at 16 g/ha ([4]; Digitaria sanguinalis, post-emergence, 16 g ai/ha, postemergence, 0 is no effect, 100 is complete control, read-out: Plant response rating (0 to 100), Crabgrass, Large): 5%
- pest or weed control at 125 g/ha ([4]; Digitaria sanguinalis, post-emergence, 125 g ai/ha, postemergence, visual rating, scale 0 to 100 (0 no effect, 100 complete control), read-out: Plant response rating, Crabgrass, Large): 10%
- pest or weed control at 62 g/ha ([4]; Digitaria sanguinalis, post-emergence, Postemergence, 62 g ai/ha, scale 0 to 100 (0 no effect, 100 complete control), read-out: Plant response rating, Crabgrass, Large): 5%
- Soybean plant response rating (crop injury, 0-100 scale) at 16 g/ha ([5]; Glycine max, post-emergence, 16 g ai/ha, postemergence, 0 is no effect, 100 is complete control): 20%
- Soybean plant response rating (crop injury, 0-100 scale) at 125 g/ha ([5]; Glycine max, post-emergence, 125 g ai/ha, postemergence, visual rating, scale 0 to 100 (0 no effect, 100 complete control), read-out: Plant response rating, Soybean): 50%
- Soybean plant response rating (crop injury, 0-100 scale) at 62 g/ha ([5]; Glycine max, post-emergence, Postemergence, 62 g ai/ha, scale 0 to 100 (0 no effect, 100 complete control)): 35%
- plant injury at 125 g/ha ([6]; Triticum aestivum, post-emergence, 240 h, 125 g ai/ha, read-out: Wheat plant response rating): 0%
- plant injury at 500 g/ha ([6]; Triticum aestivum, post-emergence, 240 h, 500 g ai/ha, read-out: Plant response rating, Wheat): 60%
- pest or weed control at 16 g/ha ([7]; Galium, pre-emergence, 16 g ai/ha, preemergence, scale 0 to 100 (0 no effect, 100 complete control), read-out: Galium plant response rating): 0%
- pest or weed control at 62 g/ha ([7]; Galium, pre-emergence, 62 g ai/ha, preemergence, scale 0 (no effect) to 100 (complete control), read-out: Galium plant response rating): 90%
- pest or weed control at 125 g/ha ([7]; Galium, pre-emergence, 125 g ai/ha, preemergence, scale 0 (no effect) to 100 (complete control), read-out: Galium plant response rating): 90%
- pest or weed control at 31 g/ha ([7]; Galium, pre-emergence, Preemergence, 31 g ai/ha, scale 0 to 100, 0 no effect, 100 complete control, read-out: Plant response rating, Galium): 0%
- pest or weed control at 16 g/ha ([8]; Abutilon theophrasti, post-emergence, 16 g ai/ha, postemergence, 0 is no effect, 100 is complete control, read-out: Plant response rating (0 to 100), Velvetleaf): 5%
- pest or weed control at 125 g/ha ([8]; Abutilon theophrasti, post-emergence, 125 g ai/ha, postemergence, visual rating, scale 0 to 100 (0 no effect, 100 complete control), read-out: Plant response rating, Velvetleaf): 45%
- pest or weed control at 62 g/ha ([8]; Abutilon theophrasti, post-emergence, Postemergence, 62 g ai/ha, scale 0 to 100 (0 no effect, 100 complete control), read-out: Plant response rating, Velvetleaf): 40%
- pest or weed control at 500 g/ha ([9]; Amaranthus retroflexus, post-emergence, 500 g ai/ha, read-out: Plant response rating, Pigweed): 100%
- pest or weed control at 125 g/ha ([9]; Amaranthus retroflexus, post-emergence, 240 h, 125 g ai/ha, read-out: Pigweed plant response rating): 100%
- pest or weed control at 16 g/ha ([10]; Lolium multiflorum, pre-emergence, 16 g ai/ha, preemergence, scale 0 to 100 (0 no effect, 100 complete control), read-out: Ryegrass, Italian plant response rating): 0%
- pest or weed control at 62 g/ha ([10]; Lolium multiflorum, pre-emergence, 62 g ai/ha, preemergence, scale 0 (no effect) to 100 (complete control), read-out: Ryegrass, Italian plant response rating): 5%
- pest or weed control at 125 g/ha ([10]; Lolium multiflorum, pre-emergence, 125 g ai/ha, preemergence, scale 0 (no effect) to 100 (complete control), read-out: Ryegrass, Italian plant response rating): 30%
- pest or weed control at 31 g/ha ([10]; Lolium multiflorum, pre-emergence, Preemergence, 31 g ai/ha, scale 0 to 100, 0 no effect, 100 complete control, read-out: Plant response rating, Ryegrass, Italian): 0%
- pest or weed control at 16 g/ha ([11]; Sorghum halepense, post-emergence, 16 g ai/ha, postemergence, 0 is no effect, 100 is complete control, read-out: Plant response rating (0 to 100), Johnsongrass): 5%
- pest or weed control at 125 g/ha ([11]; Sorghum halepense, post-emergence, 125 g ai/ha, postemergence, visual rating, scale 0 to 100 (0 no effect, 100 complete control), read-out: Plant response rating, Johnsongrass): 5%
- pest or weed control at 62 g/ha ([11]; Sorghum halepense, post-emergence, Postemergence, 62 g ai/ha, scale 0 to 100 (0 no effect, 100 complete control), read-out: Plant response rating, Johnsongrass): 5%
- pest or weed control at 16 g/ha ([12]; Cyperus, post-emergence, 16 g ai/ha, postemergence, 0 is no effect, 100 is complete control, read-out: Plant response rating (0 to 100), Nutsedge, Yellow): 0%
- pest or weed control at 125 g/ha ([12]; Cyperus, post-emergence, 125 g ai/ha, postemergence, visual rating, scale 0 to 100 (0 no effect, 100 complete control), read-out: Plant response rating, Nutsedge, Yellow): 10%
- pest or weed control at 62 g/ha ([12]; Cyperus, post-emergence, Postemergence, 62 g ai/ha, scale 0 to 100 (0 no effect, 100 complete control), read-out: Plant response rating, Nutsedge, Yellow): 0%
- pest or weed control at 125 g/ha ([13]; Amaranthus retroflexus, pre-emergence, 125 g ai/ha, read-out: Plant response rating, Pigweed): 100%
- pest or weed control at 500 g/ha ([13]; Amaranthus retroflexus, pre-emergence, 240 h, 500 g ai/ha, read-out: Pigweed plant response rating): 100%

SMILES: Cc1cnc(Oc2cccc(C#N)c2-n2cc(I)cn2)nc1 [Compound 136]
- Plant response rating, Sedge, Umbrella [1]: 70
- Plant response rating (0 to 100), Oilseed Rape [2, 14]: 0
- Plant response rating, Oilseed Rape [2, 15]: 5
- Plant response rating, Oilseed Rape [2, 16]: 5
- Plant response rating (0 to 100), Foxtail, Giant [3, 14]: 5
- Plant response rating, Foxtail, Giant [3, 15]: 10
- Plant response rating, Foxtail, Giant [3, 16]: 5
- Plant response rating (0 to 100), Crabgrass, Large [4, 14]: 5
- Plant response rating, Crabgrass, Large [4, 15]: 15
- Plant response rating, Crabgrass, Large [4, 16]: 5
- Plant response rating (0 to 100), Soybean [5, 14]: 35
- Plant response rating, Soybean [5, 15]: 90
- Plant response rating, Soybean [5, 16]: 75
- Wheat plant response rating ([6]; 125 g ai/ha): 0
- Plant response rating, Wheat ([6]; 500 g ai/ha): 50
- Galium plant response rating [7, 17]: 0
- Galium plant response rating [7, 18]: 30
- Galium plant response rating [7, 19]: 85
- Plant response rating, Galium ([7]; Preemergence, 31 g ai/ha, scale 0 to 100, 0 no effect, 100 complete control): 0
- Plant response rating (0 to 100), Velvetleaf [8, 14]: 10
- Plant response rating, Velvetleaf [8, 15]: 25
- Plant response rating, Velvetleaf [8, 16]: 10
- Pigweed plant response rating ([9]; 125 g ai/ha): 80
- Plant response rating, Pigweed ([9]; 500 g ai/ha): 100
- Ryegrass, Italian plant response rating [10, 17]: 0
- Ryegrass, Italian plant response rating [10, 18]: 0
- Ryegrass, Italian plant response rating [10, 19]: 15
- Plant response rating (0 to 100), Johnsongrass [11, 14]: 0
- Plant response rating, Johnsongrass [11, 16]: 0
- Plant response rating (0 to 100), Nutsedge, Yellow [12, 14]: 0
- Plant response rating, Nutsedge, Yellow [12, 15]: 10
- Plant response rating, Nutsedge, Yellow [12, 16]: 5
- Plant response rating, Pigweed ([13]; 125 g ai/ha): 90
- Pigweed plant response rating ([13]; 500 g ai/ha): 100
